From patent publication US8975417B2, “Pyrazolopyrrolidine derivatives and their use in the treatment of disease” (Novartis AG, priority 2013, dated 2015)

Tests used:
Conditions in all cases: biochemical
His-Brd2(60-472) = His-Brd2(60-472) (Homo sapiens (Human), UniProt P25440); assay: TR-FRET in-vitro binding assay for BRD2
Protocol: (§1) TR-FRET In-Vitro Binding Assays for BRD2, BRD3, and BRD4:
(§2) All assays were performed in 384-well microtiter plates. Each assay plate contained 8-point serial dilutions for 40 test compounds, plus 16 high- and 16 low controls. Liquid handling and incubation steps were done on an Innovadyne Nanodrop Express equipped with a robotic arm (Thermo CatX, Perkin Elmer/Caliper Twister II) and an incubator (Liconic STX40, Thermo Cytomat 2C450). The assay plates were prepared by addition of 50 nl per well of compound solution in 90% DMSO HummingBird nanodispenser (Zinsser Analytic). The assay was started by stepwise addition of 4.5 μL per well of bromo domain protein (50 mM HEPES, pH 7.5, 0.005% Tween20, 0.1% BSA, 50 mM NaCl, 45 nM His-Brd2(60-472) or 45 nM His-Brd3(20-477) or 45 nM His-Brd4(44-477) all proteins produced in-house) and 4.5 μL per well of peptide solution (50 mM HEPES, pH 7.5, 0.005% Tween20, 0.1% BSA, 50 mM NaCl, 60 nM acetyl-histone H4 (AcK 5, 8, 12, 16) (Biosyntan GmbH)). Reactions were incubated at 30° C. for 35 minutes. Subsequently 4.5 μL per well detection mix (50 mM HEPES, pH 7.5, 0.005% Tween20, 0.1% BSA, 50 mM NaCl, 3 nM Eu-labeled anti-His6 antibody, 21 nM streptavidin-allophycocyanin) were added. After minutes incubation at 30° C., plates were measured in a Perkin Elmer EnVision multilabel reader.
(§3) Test compounds were dissolved in DMSO (10 mM) and transferred into 1.4 mL flat bottom or V-shaped Matrix tubes carrying a unique 2D matrix. The stock solutions were stored at […] if not used immediately. For the test procedure the vials were defrosted and identified by a scanner whereby a working sheet was generated that guided the subsequent working steps. Compound dilutions were made in 96 well plates. This format enabled the assay of maximally […] at 8 concentrations (single points) including 4 reference compounds, if desired (known BET inhibitors from the prior art, for this and other assays of the type disclosed herein). The dilution protocol included the production of “pre-dilution plates”, “master plates” and “assay plates”.
(§4) Polypropylene 96-well plates were used as pre-dilution plates. […] All dilution steps were done on a HamiltonSTAR robot.
(§5) 30 μL of individual compound dilutions including standard compound and controls of the 4 “pre-dilution plates” were transferred into a 384-well “master plate” including the following concentrations 10000, […], 1000, 300, 100, 30, 10 and 3 μM, respectively in 90% of DMSO.
(§6) Identical “assay plates” were then prepared by pipetting 50 nL each of compound dilutions of the “master plates” into 384-well “assay plates” by means of a HummingBird 384-channel dispenser. These plates were used directly for the assay which was performed in a total volume of 13.55 μL.

[1] = molecular target: His-CREBBP (1081-1197) bromodomain (Homo sapiens (Human), UniProt Q92793); assay: AlphaScreen in-vitro binding assay for CREBBP
Protocol: AlphaScreen In-Vitro Binding Assay for CREBBP
In order to assess bromodomain selectivity, we set up a binding assay using the bromodomain encoded by the CREBBP gene. […] Reactions were incubated at 30° C. for 35 minutes. Subsequently 4.5 μL per well detection mix (50 mM HEPES, pH 7.5, 0.005% Tween20, 0.02% BSA, 150 mM NaCl, 45 μg/ml Ni-chelate acceptor beads, 45 μg/mL streptavidin-donor beads) (Perkin Elmer)) were added. After 60 minutes incubation at room temperature, plates were measured in a Perkin Elmer EnVision multilabel reader. IC50 values were determined from percent inhibition values at different compound concentrations by non-linear regression analysis.
as §3, §4
These plates were used directly for the assay which was performed in a total volume of 13.55 μL.

His-Brd4(44-477) = His-Brd4(44-477) (Homo sapiens (Human), UniProt O60885); assay: TR-FRET in-vitro binding assay for BRD4
Protocol: as §1, §2, §3, §4, §5, §6

His-Brd3(20-477) = His-Brd3(20-477) (Homo sapiens (Human), UniProt Q15059); assay: TR-FRET in-vitro binding assay for BRD3
Protocol: as §1, §2, §3, §4, §5, §6

Sequence of His-Brd2(60-472) (P25440 60-472): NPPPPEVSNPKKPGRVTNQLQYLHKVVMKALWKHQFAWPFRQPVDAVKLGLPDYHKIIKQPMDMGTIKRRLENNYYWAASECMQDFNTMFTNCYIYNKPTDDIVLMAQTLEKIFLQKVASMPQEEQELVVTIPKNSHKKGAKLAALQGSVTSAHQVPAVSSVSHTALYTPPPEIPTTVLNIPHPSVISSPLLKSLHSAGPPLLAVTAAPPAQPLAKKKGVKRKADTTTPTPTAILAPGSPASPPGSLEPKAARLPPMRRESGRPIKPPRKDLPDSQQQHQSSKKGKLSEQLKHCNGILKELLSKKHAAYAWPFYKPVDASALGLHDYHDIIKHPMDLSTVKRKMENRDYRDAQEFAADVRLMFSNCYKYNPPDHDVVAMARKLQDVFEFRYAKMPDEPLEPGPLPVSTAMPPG
Sequence of His-Brd3(20-477) (Q15059 20-477): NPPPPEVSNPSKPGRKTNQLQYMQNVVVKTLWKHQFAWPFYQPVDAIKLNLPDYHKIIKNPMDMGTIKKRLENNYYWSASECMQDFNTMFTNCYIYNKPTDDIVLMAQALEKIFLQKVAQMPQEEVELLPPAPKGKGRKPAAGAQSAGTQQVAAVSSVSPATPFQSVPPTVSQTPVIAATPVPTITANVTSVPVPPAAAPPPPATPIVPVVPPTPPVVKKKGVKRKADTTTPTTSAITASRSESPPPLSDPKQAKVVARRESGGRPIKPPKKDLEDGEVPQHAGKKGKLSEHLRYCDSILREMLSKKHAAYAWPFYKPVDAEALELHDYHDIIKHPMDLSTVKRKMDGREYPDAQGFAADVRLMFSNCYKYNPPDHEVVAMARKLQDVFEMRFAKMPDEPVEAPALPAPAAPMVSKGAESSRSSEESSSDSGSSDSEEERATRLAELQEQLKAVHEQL
Sequence of His-CREBBP (1081-1197) bromodomain (Q92793 1081-1197): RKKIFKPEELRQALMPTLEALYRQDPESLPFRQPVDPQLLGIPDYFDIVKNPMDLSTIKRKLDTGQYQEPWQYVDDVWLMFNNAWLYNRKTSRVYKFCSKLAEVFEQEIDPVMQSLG

SMILES	IC50 (His-Brd2(60-472)) [µM]	IC50 [1] [µM]	IC50 (His-Brd4(44-477)) [µM]	IC50 (His-Brd3(20-477)) [µM]
Cc1nn(C2CC2)c2c1[C@H](c1ccc(Cl)cc1)N(c1cc(Cl)c(=O)n(C)c1)C2=O [Example 50, (S)-5-(5-chloro-1-methyl-6-oxo-1,6-dihydropyridin-3-yl)-4-(4-chlorophenyl)-1-cyclopropyl-3-methyl-4,5-dihydropyrrolo[3,4-c]pyrazol-6(1H)-one]	> 6.7	> 5.1		
Cc1cc(N2C(=O)c3nn(C)cc3C2c2ccc(Cl)cc2)cn(C)c1=O (stereo not shown) [Example 13, 4-(4-chlorophenyl)-5-(1,5-dimethyl-6-oxo-1,6-dihydropyridin-3-yl)-2-methyl-4,5-dihydropyrrolo[3,4-c]pyrazol-6(2H)-one]	0.18		0.13	0.15
Cc1c2c(nn1C)C(=O)N(c1ccc(=O)n(C)c1)C2c1ccc(Cl)cc1 (stereo not shown) [Example 3, 4-(4-chlorophenyl)-2,3-dimethyl-5-(1-methyl-6-oxo-1,6-dihydropyridin-3-yl)-4,5-dihydropyrrolo[3,4-c]pyrazol-6(2H)-one]	0.58		0.4	0.52
Cc1cc(N2C(=O)c3nn(C)cc3[C@@H]2c2ccc(Cl)cc2)cn(C)c1=O [Example 15, (S)-4-(4-chlorophenyl)-5-(1,5-dimethyl-6-oxo-1,6-dihydropyridin-3-yl)-2-methyl-4,5-dihydropyrrolo[3,4-c]pyrazol-6(2H)-one]				> 6.7
Cc1nn(C)c2c1C(c1ccc(Cl)cc1)N(c1ccc(=O)n(C)c1)C2=O (stereo not shown) [Example 4, 4-(4-chlorophenyl)-1,3-dimethyl-5-(1-methyl-6-oxo-1,6-dihydropyridin-3-yl)-4,5-dihydropyrrolo[3,4-c]pyrazol-6(1H)-one]			0.23	
Cc1cc(N2C(=O)c3nn(C)c(C)c3[C@@H]2c2ccc(Cl)cc2)cn(C)c1=O [Example 29, (S)-4-(4-chlorophenyl)-5-(1,5-dimethyl-6-oxo-1,6-dihydropyridin-3-yl)-2,3-dimethyl-4,5-dihydropyrrolo[3,4-c]pyrazol-6(2H)-one]	28		31	25
Cc1c2c(nn1C)C(=O)N(c1cc(Cl)c(=O)n(C)c1)[C@H]2c1ccc(Cl)cc1 [Example 8, (S)-5-(5-chloro-1-methyl-6-oxo-1,6-dihydropyridin-3-yl)-4-(4-chlorophenyl)-2,3-dimethyl-4,5-dihydropyrrolo[3,4-c]pyrazol-6(2H)-one]	36		31	27
Cn1cc(N2C(=O)c3n[nH]cc3C2c2ccc(Cl)cc2)cc(Cl)c1=O (stereo not shown) [Example 9, 5-(5-chloro-1-methyl-6-oxo-1,6-dihydropyridin-3-yl)-4-(4-chlorophenyl)-4,5-dihydropyrrolo[3,4-c]pyrazol-6(2H)-one]	0.21		0.17	0.18
Cc1c2c(nn1C)C(=O)N(c1cc(F)c(=O)n(C)c1)C2c1ccc(Cl)cc1 (stereo not shown) [Example 31, 4-(4-chlorophenyl)-5-(5-fluoro-1-methyl-6-oxo-1,6-dihydropyridin-3-yl)-2,3-dimethyl-4,5-dihydropyrrolo[3,4-c]pyrazol-6(2H)-one]	0.69		0.52	0.47
Cc1nn(C2CC2)c2c1C(c1ccc(Cl)cc1)N(c1cc(C)c(=O)n(C)c1)C2=O (racemic) [Example 23, 4-(4-chlorophenyl)-1-cyclopropyl-5-(1,5-dimethyl-6-oxo-1,6-dihydropyridin-3-yl)-3-methyl-4,5-dihydropyrrolo[3,4-c]pyrazol-6(1H)-one]			0.066	
Cn1cc2c(n1)C(=O)N(c1cc(Cl)c(=O)n(C)c1)C2c1ccc(Cl)cc1 (stereo not shown) [Example 10, 5-(5-chloro-1-methyl-6-oxo-1,6-dihydropyridin-3-yl)-4-(4-chlorophenyl)-2-methyl-4,5-dihydropyrrolo[3,4-c]pyrazol-6(2H)-one]	0.15		0.15	0.13
Cc1cc(N2C(=O)c3nn(C)c(C)c3[C@H]2c2ccc(Cl)cc2)cn(C)c1=O [Example 30, (R)-4-(4-chlorophenyl)-5-(1,5-dimethyl-6-oxo-1,6-dihydropyridin-3-yl)-2,3-dimethyl-4,5-dihydropyrrolo[3,4-c]pyrazol-6(2H)-one]			0.031	
Cc1c2c(nn1C)C(=O)N(c1ccc3nnc(C)n3c1)C2c1ccc(Cl)cc1 (stereo not shown) [Example 25, 4-(4-chlorophenyl)-2,3-dimethyl-5-(3-methyl-[1,2,4]triazolo[4,3-a]pyridin-6-yl)-4,5-dihydropyrrolo[3,4-c]pyrazol-6(2H)-one]	0.27		0.26	0.25
COc1ccc(Cn2nc3c(c2C)C(c2ccc(Cl)cc2)N(c2ccc(=O)n(C)c2)C3=O)cc1 (stereo not shown) [Example 1, 4-(4-chlorophenyl)-2-(4-methoxybenzyl)-3-methyl-5-(1-methyl-6-oxo-1,6-dihydropyridin-3-yl)-4,5-dihydropyrrolo[3,4-c]pyrazol-6(2H)-one]			0.14	
Cc1c2c(nn1C)C(=O)N(c1ccc(=O)n(C)n1)C2c1ccc(Cl)cc1 (stereo not shown) [Example 32, 4-(4-chlorophenyl)-2,3-dimethyl-5-(1-methyl-6-oxo-1,6-dihydropyridazin-3-yl)-4,5-dihydropyrrolo[3,4-c]pyrazol-6(2H)-one]	1.2		0.66	0.89
Cc1cc(N2C(=O)c3nn(C4CC4)c(C)c3[C@@H]2c2ccc(Cl)cc2)cn(C)c1=O [Example 22, (S)-4-(4-chlorophenyl)-2-cyclopropyl-5-(1,5-dimethyl-6-oxo-1,6-dihydropyridin-3-yl)-3-methyl-4,5-dihydropyrrolo[3,4-c]pyrazol-6(2H)-one]	> 6.7			
Cn1cc2c(n1)C(=O)N(c1cc(F)c(=O)n(C)c1)C2c1ccc(Cl)cc1 (stereo not shown) [Example 14, 4-(4-chlorophenyl)-5-(5-fluoro-1-methyl-6-oxo-1,6-dihydropyridin-3-yl)-2-methyl-4,5-dihydropyrrolo[3,4-c]pyrazol-6(2H)-one]			0.46	
Cc1[nH]nc2c1C(c1ccc(Cl)cc1)N(c1ccc(=O)n(C)c1)C2=O (stereo not shown) [Example 2, 4-(4-chlorophenyl)-3-methyl-5-(1-methyl-6-oxo-1,6-dihydropyridin-3-yl)-4,5-dihydropyrrolo[3,4-c]pyrazol-6(2H)-one]			0.17	
Cn1cc2c(n1)C(=O)N(c1cc(Cl)c(=O)n(C)c1)[C@@H]2c1ccc(Cl)cc1 [Example 11, (R)-5-(5-chloro-1-methyl-6-oxo-1,6-dihydropyridin-3-yl)-4-(4-chlorophenyl)-2-methyl-4,5-dihydropyrrolo[3,4-c]pyrazol-6(2H)-one]	0.14		0.13	0.1
Cn1cc2c(n1)C(=O)N(c1cc(Cl)c(=O)n(C)c1)[C@H]2c1ccc(Cl)cc1 [Example 12, (S)-5-(5-chloro-1-methyl-6-oxo-1,6-dihydropyridin-3-yl)-4-(4-chlorophenyl)-2-methyl-4,5-dihydropyrrolo[3,4-c]pyrazol-6(2H)-one]	> 37		> 37	> 37
Cc1cc(N2C(=O)c3nn(C4CC4)cc3C2c2ccc(Cl)cc2)cn(C)c1=O (stereo not shown) [Example 39, 4-(4-chlorophenyl)-2-cyclopropyl-5-(1,5-dimethyl-6-oxo-1,6-dihydropyridin-3-yl)-4,5-dihydropyrrolo[3,4-c]pyrazol-6(2H)-one]	0.078		0.12	0.091
